What was measured:
Format in all cases: physicochemical
[1] = Solubility in propoxylated pentaerythritol tetraacrylate SR 494 LM (PPTTA); conditions: for Solubility in PPTTA: stirred 30 minutes at room temperature
Protocol: 4-phenylbenzophenone, 4-phenylbenzoyl benzoic acid ethylhexyl ester, and 4-phenylbenzoyl benzoic acid amyl ester were each separately added to the multifunctional acrylate propoxylated pentaerythritol tetraacrylate (SR 494 LM, Sartomer company) (PPTTA) in amounts of 2, 4, 6, and 8 weight % and stirred for 30 minutes at room temperature.

[2] = Solubility stability of photoinitiator blends; conditions: for Behaviour of the solution upon cooling to room temperature: 1:1 mixture with dimethylaminobenzoic acid ethylhexyl ester, dissolved at 50° C.
Protocol: A 1:1 mixture in weight of 4-phenylbenzoyl benzoic acid ethylhexyl ester and dimethylaminobenzoic acid ethylhexyl ester was transformed into a solution by stirring at room temperature. […] As a comparison experiment, a 1:1 mixture of 4-phenylbenzophenone and dimethylaminobenzoic acid ethylhexyl ester was turned into a solution at elevated temperature of 50° C.

[3] = Solubility in di-pentaerythritol hexaacrylate (DPHA); conditions: for Solubility in DPHA: stirred 30 minutes at room temperature
Protocol: 4-phenylbenzophenone, 4-phenylbenzoyl benzoic acid ethylhexyl ester, and 4-phenylbenzoyl benzoic acid amyl ester were each added separately to the multifunctional acrylate di-pentaerythritol hexaacrylate (DPHA, Miwon Company) in amounts of 2, 4, 6, and 8 weight %, and stirred for 30 minutes at room temperature.

[4] = Viscosity of the neat ester; conditions: at 25° C.
[5] = UV-spectra measurement (absorption maximum, molar extinction coefficient); conditions: ethyl acetate; for Molar extinction coefficient: at absorption maximum
Protocol: Spectra were acquired using a Unicam UV-2 UV/VIS spectrophotometer. All absorption spectra were obtained using 1 cm cuvettes, scanning within the 200-800 nm range. Solutions were prepared in a 100 cm^3 volumetric flask, and if required, subsequently diluted so that a maximum absorbance of less than 2 was obtained. From the absorption the molar extinction coefficient e was calculated in liter·mol^−1·cm^−1.

Solubility in PPTTA ([1]; 2 weight % in PPTTA) | Solubility in PPTTA ([1]; 4 weight % in PPTTA) | Solubility in PPTTA ([1]; 6 weight % in PPTTA) | Solubility in PPTTA ([1]; 8 weight % in PPTTA) | Solubility in DPHA ([3]; 2 weight % in DPHA) | Solubility in DPHA ([3]; 4 weight % in DPHA) | Solubility in DPHA ([3]; 6 weight % in DPHA) | Solubility in DPHA ([3]; 8 weight % in DPHA) | Viscosity [4] [Pa·s] | State of the solution at 5° C. ([2]; 1:1 mixture in weight with dimethylaminobenzoic acid ethylhexyl ester) | Molar extinction coefficient [5] [liter · mol^−1 · cm · ^−1] | Absorption maximum [5] | UV-spectroscopy: λ max [5] [nm] | Structure (SMILES) | Behaviour of the solution upon cooling to room temperature [2] | Solubility in PPTTA compared with 4-phenyl benzophenone [1] | Solubility in DPHA compared with 4-phenyl benzophenone [3]
solution | solution | solution | solution | solution | solution | solution | solution | 12 | stayed liquid | 20100 | 287 (ethyl acetate) nm | 287 | CCCCC(CC)COC(=O)c1ccccc1C(=O)c1ccc(-c2ccccc2)cc1 (stereo not shown) [Example 9, 4-Phenylbenzoyl Benzoic Acid Ethyl Hexyl Ester] |  | better solubility than 4-phenyl benzophenone | better solubility than 4-phenyl benzophenone
 |  |  |  |  |  |  |  |  |  |  |  |  | COC(=O)c1ccccc1C(=O)c1ccc(-c2ccccc2)cc1 [4-phenylbenzoyl benzoic acid methyl ester] | instability and precipitation |  | 
 |  |  |  |  |  |  |  |  |  | 24900 | 309 (ethyl acetate) nm | 309 | CCCCC(CC)COC(=O)c1ccccc1C(=O)c1ccc(-c2ccc(-c3ccccc3)cc2)cc1 (stereo not shown) [Example 12, 4-Terphenoyl Benzoic Acid Ethylhexyl Ester] |  |  | 
solution | solution | solution | solution | solution | solution | solution | solution | 13 |  |  |  | 286 | CCCCCOC(=O)c1ccccc1C(=O)c1ccc(-c2ccccc2)cc1 [Example 10, 4-Phenylbenzoyl Benzoic Acid Amyl Ester] |  | better solubility than 4-phenyl benzophenone | better solubility than 4-phenyl benzophenone

Structure (SMILES) | Solubility in PPTTA ([1]; 2 weight % in PPTTA) | Solubility in PPTTA ([1]; 4 weight % in PPTTA) | Solubility in PPTTA ([1]; 6 weight % in PPTTA) | Solubility in PPTTA ([1]; 8 weight % in PPTTA) | Solubility in DPHA ([3]; 2 weight % in DPHA) | Solubility in DPHA ([3]; 4 weight % in DPHA) | Solubility in DPHA ([3]; 6 weight % in DPHA) | Solubility in DPHA ([3]; 8 weight % in DPHA) | Viscosity [4] [Pa·s] | State of the solution at 5° C. ([2]; 1:1 mixture in weight with dimethylaminobenzoic acid ethylhexyl ester) | Molar extinction coefficient [5] [liter · mol^−1 · cm · ^−1] | Absorption maximum [5] | UV-spectroscopy: λ max [5] [nm] | Behaviour of the solution upon cooling to room temperature [2] | Solubility in PPTTA compared with 4-phenyl benzophenone [1] | Solubility in DPHA compared with 4-phenyl benzophenone [3]
O=C(c1ccccc1)c1ccc(-c2ccccc2)cc1 [Example 1, 4-phenyl benzophenone, reference compound] | solution | hazy | Solid residuals | Solid residuals | solution | solution | Hazy- opaque | Solid residuals |  |  |  |  |  | precipitated |  | 
